Source: patent publication US20240271133A1, “KRAB-Containing Zinc Finger Protein And Cancer” (ECOLE POLYTECHNIQUE FEDERALE DE LAUSANNE (EPFL), priority 2021, published 2024)

Test system: U2932 KD cells
Procedure: pLKO.puro shRNA vectors were used for ZNF586, ZNF587 and ZNF417 knock downs. […] The short hairpin RNAs (shRNAs) targeting the sequence ZNF586 (TRCN0000015373 and TRCN0000015376) were obtained from Sigma-Aldrich. Lentiviral vectors production protocols are detailed at http://tronolab.epfl.ch. The cell proliferation after LV transduction was determined using the 3-[4,5-dimethylthiazol-2-yl]-2,5-diphenyltetrazolium bromide (MTT) assay. The cells were transduced at a multiplicity of infection (MOI) of 20 in every experiment.

Row | SMILES | cytotoxic interaction of drug with ZNF587/417 depletion
1 | Nc1ncn([C@H]2C[C@H](O)[C@@H](CO)O2)c(=O)n1 [decitabine] | cytotoxic synergism
2 | C=CC(=O)N1CCC[C@@H](n2nc(-c3ccc(Oc4ccccc4)cc3)c3c(N)ncnc32)C1 [ibrutinib] | cytotoxic synergism
